According to paper PMC10891539, “Plant Extracts and Phytochemicals from the Asteraceae Family with Antiviral Properties” (Molecules, 2024):
Where two headings read alike, the source gives them in different places.

Key:
[1] = Cytotoxicity assay (MTT) on Vero cells; format: cell-based; conditions: African green monkey
Description: (§1) Vero (African green monkey kidney, ATCC CCL-81) cells were grown in Eagle’s minimum essential medium (MEM, Gibco™ Thermo Fisher Scientific, Waltham, MA, USA) supplemented with 5% heat-inactivated newborn bovine serum (NBS, Gibco™ Thermo Fisher Scientific, Carlsbad, CA, USA) and 1.5 g/L of sodium bicarbonate in a 5% CO2 atmosphere. For the maintenance medium (MM), the serum concentration was reduced to 1.5%. The C6/36 HT mosquito cell line from Aedes albopictus (ATCC CRL-1660), adapted to grow at 33 °C, was cultured in L-15 Medium (Leibovitz) supplemented with 0.3% tryptose phosphate broth, 0.02% glutamine, 1% MEM non-essential amino acids solution, and 5% FBS. The original stock of DENV-2 strain NGC was prepared in C6/36 cells and titrated via plaque formation in Vero cells.
Confluent cell monolayers in 96-well plates were exposed for 48 h to serial two-fold compound dilutions, four wells for each concentration, and then viability was tested. The concentration range evaluated for extracts was 1–250 µg/mL, and for pure compounds, it was 1–200 µM or 1–100 µM depending on the phytochemical. […] Cell cultures treated with 0.01% concentration of vehicle (DMSO or methanol) were taken as cell control. Cell viability determinations were performed by the 3-(4,5-dimethylthiazol-2-yl)-2,5-diphenyl tetrazolium bromide (MTT, Sigma-Aldrich, St. Louis, MO, USA) method, adding 10 µL of MM containing MTT reagent (final concentration 0.5 mg/mL) to each well. After 2 h of incubation at 37 °C, the supernatants were removed, 100 µL of ethanol was added per well to solubilize the formazan crystals, and absorbance was measured at 595 nm. Viability values (% respect to cell control): The cytotoxic concentration 50% (CC50) was calculated via non-linear regression using GraphPad Prism (v9.0.) software as the compound concentration required to reduce the MTT signal by 50% compared to cell controls treated with vehicle (DMSO or methanol), and it is presented as the mean ± standard deviation (SD) obtained from three independent experiments.

DENV-2 = assay: Antiviral activity, virus yield inhibition assay (plaque assay) against DENV-2 in Vero cells; format: cell-based, dengue virus (DENV-2 strain NGC); conditions: for activity against DENV-2 (in words): DENV-2 in Vero cells
Description: Figure 3 Antiviral activity of dichloromethane (A) and methanolic extracts (B) and against DENV-2 in Vero cells. Cells were infected with DENV-2 (m.o.i. 0.1 PFU/cell) and, after 1 h adsorption at 37 °C, were treated with medium containing different dilutions of the dichloromethane extracts or vehicle. After 48h of infection, viral yield was determined via plaque assay. […] Results are expressed as the mean values ± standard deviation (SD).
Figure 4 Antiviral activity of pure compounds against DENV-2 in Vero cells. Cells were infected with DENV-2 (m.o.i. 0.1 PFU/cell) and, after 1 h adsorption at 37 °C, were treated with medium containing different dilutions of the pure compounds or vehicle (dimethyl sulfoxide). After 48 h of infection, viral yield was determined via plaque assay. Results are expressed as the mean values ± standard deviation (SD).
as §1
Antiviral activity was evaluated with a virus yield inhibition assay. Cells grown in 24-well microplates were infected with DENV-2 at a multiplicity of infection (m.o.i.) of 0.1 PFU/cell, and after 1 h adsorption at 37 °C, the unadsorbed virus was removed by washing with PBS and refed with MM containing different two-fold dilutions of each compound or vehicle (DMSO or methanol). […] The concentration of the solvent used for the control was the maximum present in the highest concentration of the extract or compound evaluated. After 48 h of infection, supernatants were collected and cooled down, and serial dilutions were prepared to infect Vero cell monolayers to measure virus yield via the PFU method. After viral adsorption for 1 h at 37 °C, the virus excess was removed; MM supplemented with 0.7% methylcellulose was added and cells were incubated for 1 week at 37 °C in a 5% CO2 incubator. Finally, cell monolayers were fixed with 10% formaldehyde, washed, and stained with a 1% solution of crystal violet, and PFU were counted. Inhibition values (% respect to viral control): The effective concentration 50% (EC50), as the concentration required to reduce virus yield by 50% in the compound-treated cultures, was calculated via non-linear regression using GraphPad Prism (v9.0) software, compared with viral control treated with vehicle (DMSO or methanol), and presented as the mean ± SD obtained from three independent experiments.

human cancer cell lines = tested on: human cancer cell lines; set-up: method as in PMID 32805622; conditions: cited from earlier work
[2] = pure phytochemicals, Vero cells, 48 h, MTT, mean of three determinations ± SD, read-out: CC50
[3] = Vero cells (confluent monolayers), pure phytochemicals, Vero cells, 48 h, MTT, mean of three determinations ± SD, read-out: CC50
[4] = Dengue virus, DENV2, Vero, 48 h, pure phytochemicals, concentration reducing DENV-2 yield by 50%, Vero cells, m.o.i. 0.1, 48 h, mean of three ± SD
[5] = pure phytochemicals, concentration reducing DENV-2 yield by 50%, Vero cells, m.o.i. 0.1, 48 h, mean of three ± SD

| Compound | CC50 at 48 h [1, 3] [µM] | EC50 (DENV-2; [4]) [µM] | also measured |
| --- | --- | --- | --- |
| C=C1C(=O)O[C@H]2C[C@]3(C)O[C@@H]3[C@@H]3O[C@@H]3C3=C[C@@H](OC3=O)[C@H]12 [Compound 1, mikanolide] |  |  | CC50 [1]: 6.69 ± 0.49 µM; EC50 (DENV-2; Dengue virus, DENV2, Vero, 48 h): > 2 µM |
| C=C1C(=O)O[C@@H]2/C=C(\C)CC/C=C(\C)C[C@@H](OC(=O)/C(=C/CO)CO)[C@@H]12 [Compound 2, eupatoriopicrin] |  |  | CC50 [1, 2]: 10.8 ± 0.88 µM; EC50 (DENV-2; Dengue virus, DENV2, pure phytochemicals, concentration reducing DENV-2 yield by 50%, Vero cells, m.o.i. 0.1, 48 h, mean of three ± SD, read-out: EC50): > 2 µM |
| C=C1C(=O)O[C@@H]2[C@H]3C(C)=CC[C@H]3C(=C)C[C@@H](OC(=O)/C(=C/CO)CO)[C@@H]12 [Compound 3, eupahakonenin B] | 11.2 ± 0.36 | > 2 |  |
| C=C1C(=O)O[C@@H]2/C=C(\CO)CC/C=C(\COC(C)=O)C[C@H](OC(C)=O)[C@@H]12 [Compound 4, minimolide] | 10.6 ± 0.55 | > 2 |  |
| C=C1C(=O)OC2C1CCC(=C)C1CC3OC3(C)C12 (centres unmarked) [Compound 5, estafietin] | 23.5 ± 0.99 | > 2 |  |
| C=C1CC[C@H]2C(=C)C(=O)O[C@@H]2[C@H]2C(C)=CC(=O)[C@@H]12 [Compound 6, 2-oxo-8-deoxyligustrin] | 21.8 ± 4.15 | 3.7 | EC50 (DENV-2; [5]): 3.72 ± 0.28 µM |
| C=C1C(=O)O[C@@H]2/C=C(\C)[C@@H](O)C/C=C(\C)C[C@@H](OC(=O)/C(=C/CO)COC(C)=O)[C@@H]12 [Compound 7, santhemoidin C] | 21 ± 3.65 | 3.1 | EC50 (DENV-2; [5]): 3.12 ± 1.39 µM |
| C=C(C)c1cc2cc(C(C)=O)c(O)cc2o1 [Compound 8, euparin] |  | 6.8 | CC50 at 48 h [1, 2]: > 500 µM; EC50 (DENV-2; [5]): 6.81 ± 0.2 µM |
| COc1cc(-c2oc3cc(O)c(OC)c(O)c3c(=O)c2OC)ccc1O [Compound 9, jaceidin] | > 100 | > 2 |  |
| COc1c(O)cc2oc(-c3ccc(O)c(O)c3)cc(=O)c2c1O [Compound 10, nepetin] |  | > 2 | CC50 at 48 h [1]: > 100 µM; activity against DENV-2 (in words) (DENV-2): inactive |
| COc1cc(-c2cc(=O)c3c(O)c(OC)c(O)cc3o2)ccc1O [Compound 11, jaceosidin] | > 100 | > 2 | activity against DENV-2 (in words) (DENV-2): inactive |
| O=C1C[C@@H](c2ccc(O)c(O)c2)Oc2cc(O)cc(O)c21 [Compound 12, eryodictiol] | > 100 | > 2 |  |
| COc1ccc(-c2cc(=O)c3c(O)c(OC)c(OC)cc3o2)cc1O [Compound 13, eupatorin] |  | > 2 | CC50 [1, 2]: > 200 µM |
| COc1ccc(-c2cc(=O)c3c(O)c(OC)c(OC)cc3o2)cc1OC [Compound 14, 5-demethylsinensetin] | 184 ± 27.8 | > 2 |  |
| macrocephalide A |  |  | 50% cell growth inhibitions (human cancer cell lines): 0.576 µM |
| macrocephalide B |  |  | 50% cell growth inhibitions (human cancer cell lines): 6.37 µM |
